Data set [1] deals with naïve CD4+ T cells (Balb/c). Briefly: In-vitro T-cell proliferation assay (BrdU incorporation, IL-2 secretion). It is filed as cell-based, mice. To be noted: HPBCD 5 mM, 48 h incubation. The method, then:
The term “T-cell proliferation” means an increase in T-cells over a given period of time. In one embodiment, T-cell proliferation is measured by flow cytometry analysis of lung TH2 cells and total leukocyte counts. An exemplary embodiment of a way to measure T-cell proliferation is given in example 1 below. In one embodiment, naïve CD4+ T cells are exposed to HPBCD at a concentration of 5 mM and an anti-CD3 (3 mcg/ml) for 24 hours or 48 hours with HPBCD (5 mM) or with culture medium alone at 37° C. 5% CO2. During the last 2 hours of the proliferation test, Bromodeoxyuridine is added to the medium and incorporation is quantified by ELISA. IL-2 secretion is measured in the medium after 24 hours and 48 hours of anti-CD3 stimulation through ELISA. HPBCD was used at a concentration of 5 mM. […] Naïve CD4+ T cells were isolated from Balb/c mice spleen and purified with a MACS® negative selection kit. 1.5×10^5 cells were seeded in a 96 well plate and incubated with HPBCD 5 mM (in RPMI 10% FBS 1% pen/strep) or with medium alone for 3 h. Cells were then recovered and plated in an anti-CD3 (3 mcg/ml) coated well for 24 or 48 h with HPBCD (5 mM) or with culture medium alone at 37° C. 5% CO2. During the last 2 h of the proliferation test, BrdU was added to medium and incorporation was quantified by ELISA following manufacturer instructions. […]

For data set [2], the system named is mild to moderate asthmatic patients sensitized to HDM. Briefly: Phase 2a proof of concept clinical trial, HDM allergen challenge (FEV1). It is filed as in vivo, human. The text has this: Seventeen mild to moderate asthmatics sensitized to HDM were included in a double blind crossover study comprising allergen challenges with HDM. […] These experiments show a significant effect of HPBCD inhalation on the prevention of allergen-induced FEV1 decrease during the late phase.
Clinical trial protocols have been approved by an independent ethical committee (CHU Liege—University of Liege) in accordance with GCPs, Declaration of Helsinki and European regulations (EudraCT). All participants gave written informed consent before any study-specific procedure. For the phase 1 clinical trial, 8 healthy subjects (4 women and 4 men) from 18 to 40 years were recruited and enrolled in the study at the University Hospital of Liege (Belgium). Patients were randomized and received first the placebo (NaCl 0.9%) or HPBCD at 2.5 mM and 8 days after, the opposite treatment. After 1 week, all patients received HPBCD at 15 mM. One month later, all patients received HPBCD at 15 mM during 5 consecutive days. Apyrogenic and sterile HPBCD powder was diluted with NaCl 0.9% before inhalation (8 ml) with an ultrasonic nebulizer (Devilbiss 2000). General symptoms, asthma scores (ACQ), dyspnea, chest Rx, clinical biology, ECG, vital signs, spirometry, NO, sputum (induced by NaCl 4.5%) were analyzed after treatment periods. The second clinical trial (phase 2a-proof of concept) was a double-blinded, cross-over, placebo-controlled study. 17 mild to moderate asthmatic patients were included in the study at two different sites (University Hospital of Liege and University Hospital Erasme) in Belgium. Characterization visits consisted of dyspnea symptoms recording, ECG, chest Rx, clinical biology, spirometry and vital signs analysis. PD20 (provocative dose that causes a 20% fall in FEV1 from the saline alone value) to inhaled allergen was determined. […] The PD20 of the allergen was calculated from a cumulative dose-response curve, as described previously, Cataldo et al., Matrix metalloproteinase-9, but not tissue inhibitor of matrix metalloproteinase-1, increases in the sputum from allergic asthmatic patients after allergen challenge, Chest. 2002; 122(5):1553-9. All […] received a cumulative concentration of Dermatophagoides pteronyssinus with a reactivity index of 6. After 14 days wash-out period, patients were randomly divided into two groups and received either HPBCD 15 mM or Placebo (NaCl 0.9%) by inhalation (ultrasonic nebulizer (Devilbiss 2000)) twice daily. At the end of this treatment period, lung function (FEV1) was analyzed after allergen (HDM) challenge under the supervision of experienced respiratory clinical physiologists. FEV1 was measured after allergen inhalation challenge at 5, 15, 30, 60, 120, 180, 240, 300 and 360 min. After 28 days wash-out period, patients received the opposite treatment for another 14 days and the FEV1 following allergen challenge was evaluated. All clinical parameters were examined after each treatment period. The endpoint of this proof of concept study was changes in FEV1 over 0-360 min post-allergen challenges. FEV1 in early phase (0-60 min) and late phase (180-360 min) were expressed as: area under the FEV1-versus-time curve (AUC), maximum percentage fall and average percentage fall (calculated by dividing the area under the curve of the percentage fall in FEV1 by the duration of the response period). One patient who received placebo had negative maximum FEV1 decrease and negative average percentage fall in FEV1. These negative values were truncated to 0. Patients had access to […] (salbutamol 100 μg) throughout the study as an «as needed» treatment. […]

SMILES strings stand for the structures.

Results on one molecule are retold here after patent publication US20210386668A1, “Cyclodextrin for use in the treatment and prevention of late phase bronchoconstriction in allergen-induced asthma” (Universite de Liege, priority 2020, published 2021).

With `CC(O)COC[C@H]1O[C@@H]2O[C@H]3[C@H](O)[C@@H](O)[C@@H](O[C@H]4[C@H](O)[C@@H](O)[C@@H](O[C@H]5[C@H](O)[C@@H](O)[C@@H](O[C@H]6[C@H](O)[C@@H](O)[C@@H](O[C@H]7[C@H](O)[C@@H](O)[C@@H](O[C@H]8[C@H](O)[C@@H](O)[C@@H](O[C@H]1[C@H](O)[C@H]2O)O[C@@H]8COCC(C)O)O[C@@H]7COCC(C)O)O[C@@H]6COCC(C)O)O[C@@H]5COCC(C)O)O[C@@H]4COCC(C)O)O[C@@H]3COCC(C)O` (stereo partly drawn) [HPBCD, 2-hydroxypropyl-beta-cyclodextrin], the “cytotoxicity (BrdU incorporation)” value in data set [1] is recorded as “not associated with cytotoxicity”. For the same molecule, the “decrease in FEV1 after HDM challenge (AUC 0-360 min)” value in data set [2] (HPBCD 15 mM inhalation twice daily vs placebo, FIG. 5B) is “lower decrease in FEV1”. The “maximum FEV1 decrease after HDM challenge” value in data set [2] (HPBCD 15 mM vs placebo, FIG. 5D) was “significantly lower”. In addition, the “average percentage FEV1 decrease after HDM challenge” value in data set [2] (HPBCD 15 mM vs placebo, FIG. 5E) is listed as “significantly lower”. The “hematology, serum biochemistry, urinalysis, vital signs, ECG tests and chest X-ray” value in data set [2] (between treatment groups) was “No significant changes”. In data set [2] (early phase 0-60 min, HPBCD vs placebo), the “FEV1 decrease during the early bronchoconstriction phase” value was “No significant differences”. In addition, the “prevention of FEV1 decrease during the late phase reaction (AUC)” value in data set [2] (late phase 180-360 min, HPBCD 15 mM vs placebo, FIG. 5C) is given as “predominant effect”.
